# Data published in ChEMBL document CHEMBL3885881, “DrugMatrix”.
# Species: Rattus norvegicus
# Experiment: DrugMatrix - Regimen: Daily Repeat
# Type: toxicity, organism-based, Sprague-Dawley
# Set-up: regimen Daily Repeat, gender Male, age 6-8 weeks
# Settings: in vivo, po, route oral GAVAGE, vehicle 100 % WATER; for URIC ACID / ALANINE AMINOTRANSFERASE / ALBUMIN / ALKALINE PHOSPHATASE / ASPARTATE AMINOTRANSFERASE / BLOOD UREA NITROGEN / CARBON DIOXIDE / CHLORIDE / CHOLESTEROL / CREATININE / GLUCOSE / LACTATE DEHYDROGENASE / LIPASE / PHOSPHORUS / POTASSIUM / SODIUM / TOTAL BILIRUBIN / TOTAL PROTEIN / CREATINE PHOSPHOKINASE: tissue Plasma; for ABSOLUTE BASOPHIL / ABSOLUTE EOSINOPHIL / ABSOLUTE LYMPHOCYTE / ABSOLUTE MONOCYTE / ABSOLUTE SEGMENTED NEUTROPHIL / BASOPHIL / EOSINOPHIL / ERYTHROCYTE COUNT / HEMATOCRIT / HEMOGLOBIN / LEUKOCYTE COUNT / LYMPHOCYTE / MEAN CORPUSCULAR HEMOGLOBIN / MEAN CORPUSCULAR HEMOGLOBIN CONCENTRATION / MEAN CORPUSCULAR VOLUME / MONOCYTE / NEUTROPHIL / NUCLEATED RED BLOOD CELLS / PLATELET COUNT: tissue Blood
# [1] = 25 mg/kg, 120 h, dose level Low, time 5 day
# [2] = 120 mg/kg, 72 h, dose level High, time 3 day
# [3] = 120 mg/kg, 120 h, dose level High, time 5 day
smiles,measurement,setting,value
c1ccc([C@H]2CN3CCSC3=N2)cc1 [LEVAMISOLE],URIC ACID,"25 mg/kg, 72 h, dose level Low, time 3 day",1.67 mg/dL
same,ABSOLUTE BASOPHIL,[1],0 CELLS/uL
same,ABSOLUTE EOSINOPHIL,[1],174 CELLS/uL
same,ABSOLUTE LYMPHOCYTE,[1],12224.67 CELLS/uL
same,ABSOLUTE MONOCYTE,[1],328 CELLS/uL
same,ABSOLUTE SEGMENTED NEUTROPHIL,[1],1106.67 CELLS/uL
same,BASOPHIL,[1],0%
same,EOSINOPHIL,[1],1.33%
same,ERYTHROCYTE COUNT,[1],5.32 x10E6/uL
same,HEMATOCRIT,[1],33.6%
same,HEMOGLOBIN,[1],13.4 G/DL
same,LEUKOCYTE COUNT,[1],13.83 x10E3/uL
same,LYMPHOCYTE,[1],88.33%
same,MEAN CORPUSCULAR HEMOGLOBIN,[1],25.2 pg
same,MEAN CORPUSCULAR HEMOGLOBIN CONCENTRATION,[1],39.9 G/DL
same,MEAN CORPUSCULAR VOLUME,[1],63.2 fL
same,MONOCYTE,[1],2.33%
same,NEUTROPHIL,[1],8%
same,NUCLEATED RED BLOOD CELLS,[1],0 /100WBC
same,PLATELET COUNT,[1],1156 x10E3/uL
same,ALANINE AMINOTRANSFERASE,[1],50 u/L
same,ALBUMIN,[1],4.2 G/DL
same,ALKALINE PHOSPHATASE,[1],418 u/L
same,ASPARTATE AMINOTRANSFERASE,[1],86.33 u/L
same,BLOOD UREA NITROGEN,[1],17.67 mg/dL
same,CARBON DIOXIDE,[1],27.33 mmol/L
same,CHLORIDE,[1],100.67 MEQ/L
same,CHOLESTEROL,[1],69.67 mg/dL
same,CREATININE,[1],0.19 mg/dL
same,GLUCOSE,[1],136 mg/dL
same,LACTATE DEHYDROGENASE,[1],423 u/L
same,LIPASE,[1],11 u/L
same,PHOSPHORUS,[1],11.83 mg/dL
same,POTASSIUM,[1],6.36 MEQ/L
same,SODIUM,[1],141.8 MEQ/L
same,TOTAL BILIRUBIN,[1],0.23 mg/dL
same,TOTAL PROTEIN,[1],5.77 G/DL
same,URIC ACID,[1],1.4 mg/dL
same,ABSOLUTE BASOPHIL,[2],0 CELLS/uL
same,ABSOLUTE EOSINOPHIL,[2],0 CELLS/uL
same,ABSOLUTE LYMPHOCYTE,[2],11350 CELLS/uL
same,ABSOLUTE MONOCYTE,[2],85 CELLS/uL
same,ABSOLUTE SEGMENTED NEUTROPHIL,[2],565 CELLS/uL
same,BASOPHIL,[2],0%
same,EOSINOPHIL,[2],0%
same,ERYTHROCYTE COUNT,[2],7.38 x10E6/uL
same,HEMATOCRIT,[2],45.33%
same,HEMOGLOBIN,[2],17.77 G/DL
same,LEUKOCYTE COUNT,[2],12 x10E3/uL
same,LYMPHOCYTE,[2],94%
same,MEAN CORPUSCULAR HEMOGLOBIN,[2],24.1 pg
same,MEAN CORPUSCULAR HEMOGLOBIN CONCENTRATION,[2],39.17 G/DL
same,MEAN CORPUSCULAR VOLUME,[2],61.5 fL
same,MONOCYTE,[2],1%
same,NEUTROPHIL,[2],5%
same,NUCLEATED RED BLOOD CELLS,[2],0 /100WBC
same,PLATELET COUNT,[2],1087.67 x10E3/uL
same,ALANINE AMINOTRANSFERASE,[2],57.33 u/L
same,ALBUMIN,[2],4.4 G/DL
same,ALKALINE PHOSPHATASE,[2],373.67 u/L
same,ASPARTATE AMINOTRANSFERASE,[2],80.33 u/L
same,BLOOD UREA NITROGEN,[2],17.67 mg/dL
same,CARBON DIOXIDE,[2],28.33 mmol/L
same,CHLORIDE,[2],98 MEQ/L
same,CHOLESTEROL,[2],87.33 mg/dL
same,CREATINE PHOSPHOKINASE,[2],366 u/L
same,CREATININE,[2],0.2 mg/dL
same,GLUCOSE,[2],152 mg/dL
same,LACTATE DEHYDROGENASE,[2],277.67 u/L
same,LIPASE,[2],12 u/L
same,PHOSPHORUS,[2],12.7 mg/dL
same,POTASSIUM,[2],6.52 MEQ/L
same,SODIUM,[2],140.77 MEQ/L
same,TOTAL BILIRUBIN,[2],0.13 mg/dL
same,TOTAL PROTEIN,[2],6 G/DL
same,URIC ACID,[2],2.23 mg/dL
same,ABSOLUTE BASOPHIL,[3],0 CELLS/uL
same,ABSOLUTE EOSINOPHIL,[3],0 CELLS/uL
same,ABSOLUTE LYMPHOCYTE,[3],13503 CELLS/uL
same,ABSOLUTE MONOCYTE,[3],159 CELLS/uL
same,ABSOLUTE SEGMENTED NEUTROPHIL,[3],804.67 CELLS/uL
same,BASOPHIL,[3],0%
same,EOSINOPHIL,[3],0%
same,ERYTHROCYTE COUNT,[3],5.98 x10E6/uL
same,HEMATOCRIT,[3],36.6%
same,HEMOGLOBIN,[3],14.47 G/DL
same,LEUKOCYTE COUNT,[3],14.47 x10E3/uL
same,LYMPHOCYTE,[3],93.33%
same,MEAN CORPUSCULAR HEMOGLOBIN,[3],24.23 pg
same,MEAN CORPUSCULAR HEMOGLOBIN CONCENTRATION,[3],39.53 G/DL
same,MEAN CORPUSCULAR VOLUME,[3],61.17 fL
same,MONOCYTE,[3],1%
same,NEUTROPHIL,[3],5.67%
same,NUCLEATED RED BLOOD CELLS,[3],0 /100WBC
same,PLATELET COUNT,[3],1244.33 x10E3/uL
same,ALANINE AMINOTRANSFERASE,[3],67.33 u/L
same,ALBUMIN,[3],4.1 G/DL
same,ALKALINE PHOSPHATASE,[3],355.33 u/L
same,ASPARTATE AMINOTRANSFERASE,[3],137.33 u/L
same,BLOOD UREA NITROGEN,[3],19.33 mg/dL
same,CARBON DIOXIDE,[3],20.33 mmol/L
same,CHLORIDE,[3],101 MEQ/L
same,CHOLESTEROL,[3],84.33 mg/dL
same,CREATINE PHOSPHOKINASE,[3],932 u/L
same,CREATININE,[3],0.23 mg/dL
same,GLUCOSE,[3],177.33 mg/dL
same,LACTATE DEHYDROGENASE,[3],504.67 u/L
same,LIPASE,[3],12.67 u/L
same,PHOSPHORUS,[3],13.73 mg/dL
same,POTASSIUM,[3],6.59 MEQ/L
same,SODIUM,[3],143.9 MEQ/L
same,TOTAL BILIRUBIN,[3],0.27 mg/dL
same,TOTAL PROTEIN,[3],5.67 G/DL
same,URIC ACID,[3],3.13 mg/dL
